Consider 1 compound from patent US5700640A, “Inducers of gamma globin gene expression and screening assays therefor” (priority 1994, dated 1997).

The test system of test [1] is gamma globin gene expression (gamma3'PE reporter) in K562 cells. The test is described as follows: gamma globin promoter-luciferase reporter assay in stably transfected gamma3'PE K562 cells. The procedure: The gamma globin 5' promoter and 3' enhancer fragments, alone or in combination with each other or another fragment, were inserted into restriction endonuclease sites flanking the coding sequences of the luciferase gene in pGL2 using standard recombinant DNA techniques (pGL2 was obtained commercially from Promega Biotech). Constructs were prepared which contained: 1) the gamma globin promoter alone upstream of the luciferase gene (gamma); 2) the gamma globin promoter upstream of the luciferase gene and the gamma globin 3' enhancer downstream of the luciferase gene (gamma3'PE); 3) the gamma globin promoter upstream of the luciferase gene and the SV40 enhancer downstream of the luciferase gene (gammaSV40); 4) the beta globin promoter upstream of the luciferase gene and the gamma globin 3' enhancer downstream of the luciferase gene Coeta3'PE); and 5) hypersensitive sites 2 and 3 G-IS2 and HS3) of the 5' globin enhancer upstream of the gamma globin promoter upstream of the luciferase gene and the gamma globin 3' enhancer downstream of the luciferase gene (HS2/3gamma3'PE). These constructs are illustrated schematically in FIG. 2.
The gamma globin-luciferase reporter gene constructs described in Example 1 were introduced into a human erythroleukemia cell line K562 (ATCC No. CCL 243). To create stable transfectants, K562 cells (5×10^6) in log phase were suspended in 400 μl HEPES buffered saline and then combined with 33.5 μg salmon testes DNA (Sigma), 1.5 μg neo plasmid (pPMT) and 15 μg reporter gene plasmid supercoiled that had been co-precipitated and suspended in 400 μl HEPES buffered saline. The DNA-cell mixture was electroporated at settings of 0.25 KV and 960 μFD using a Gene Pulser (BioRad Inc.) electropotation apparatus.
The cells were allowed to recover 10 minutes at room temperature, then added to 10 ml complete RPMI cell culture medium. Cell debris was removed by centrifugation at 1000 rpm for 5 minutes. The live cells were suspended in 20 ml RPMI in 2×10 cm dishes and grown in non-selective media for 48 hours. Stably transfected cells were then selected by growing the cells in media containing 300 μg/ml G418 for about one month. During this time the cells were split 1:5 every 3 to 4 days. Once the lines were stable, they were carried in 100 μg/ml G418. The cell lines were designated according to the reporter gene construct that was introduced into the cell line. For example, a cell line carrying the gamma'3PE construct was designated gamma3'PE. Transient transfections were carried out similarly except that the neo plasmid was omitted from the electroporation solution and the cells were not subjected to G418 selection.
K562 host cells carrying gamma globin-reporter gene constructs were used to lo screen compounds for their ability to induce globin gene expression, as measured by increased reporter gene activity in the host cells upon treatment with the compound. The host cells described in Example 2 were grown to log phase cells and plated at a density of 2×10^5 /ml in RPMI media without G418. After 24 hours, compounds to be assayed for their ability to induce globin gene expression were dissolved in RPMI media at a concentration of 5 mM and added to the K562 stable transfectants. Mock-treated stably transfected K562 cells served as a negative control. The cells were incubated with the test compounds at 37° C. for various time periods (e.g., 24, 50, 74 and 122 hours).
After induction with the test compounds, the cells were harvested, lysed and assayed for reporter gene activity (i.e., luciferase activity) as follows. Cells were collected, washed once with PBS and lysed in 200 μl Cell Culture Lysis 1 X Reagent (Promega Luciferase Assay System) consisting of 25 mM Tris-Phosphate pH 7.8; 2 mM DTT; 2 mM 1,2-diaminocyclohexane-N,N,N,N-tetraacetic acid; 10% glycerol; 1% Triton X-100.
On the technique in general: In a reporter assay the amount or activity of a reporter protein is the signal.

Test [2] deals with gamma globin-regulated luciferase mRNA. Description: cells. The settings on record: Homo sapiens, K562, 5 h, read-out: increase in luciferase mRNA. It counts as cell-based, human. The procedure: Total RNA was prepared by the method of McDonald as described in Sambrook et al., (1989) Molecular Cloning: A Laboratory Manual, 2nd Edition, Cold Spring Harbor Laboratory Press. 10 μg total cellular RNA was electrophoresed through agarose gels containing 3.3% formaldehyde. The electrophoresed RNA was then transferred to nitrocellulose filters by standard methods. Each sample was hybridized to specific probes for gamma globin mRNA, mRNA encoding the erythroid specific transcription factor GATA-1 and 28S ribosomal RNA (which was used for standardization). The gamma globin and GATA-1 probes were cDNA probes, which were labeled with ^32 p by random priming reactions (Promega Biotech Inc.). The 28S ribosomal RNA probe was an oligonucleotide having the sequence 5' […] 3' (SEQ ID NO: 3), which was labeled by 5' end labeling using T4 polynucleotide kinase (New England Biolabs). Nucleotide probes were hybridized to the RNA nitrocellulose filters according to standard techniques. After hybridization, radioactive signals on the nitrocellulose filters were directly quantified using a BioRad GS-250 Molecular Imager. mRNA hybridization intensities were normalized to the amount of 28S ribosomal RNA present for each sample. The results are summarized below in Table 1:
To determine if BA exerts its inductive effects by acting directly on pre-existing proteins in the cells, the effect of the protein synthesis inhibitor cycloheximide (CHX) on BA-induced expression of RNA was analyzed. In these experiments, gamma3'PE cells were incubated with 150 μg/ml CHX for 2 hr prior to addition of BA (5 mM). Control cells were incubated with either CHX or BA alone or were mock incubated. Cells were harvested 5 hr later for preparation of total RNA. RNA samples were electrophoresed, transferred to nitrocellulose and hybridized to a ^32 P-labeled luciferase cDNA probe as described in Example 4. The radioactive signals on the filter were quantitated using a BioRad GS-250 Molecular Imager and mRNA levels were normalized to values obtained for mock treated samples. […]

The test system of another test is GATA-1 mRNA. Description: GATA-1 mRNA level (Northern) with BA and/or cycloheximide in gamma3'PE cells. It counts as cell-based, human. As to conditions: BA 5 mM, 5 hr. The method, then:
To determine if BA exerts its inductive effects by acting directly on pre-existing proteins in the cells, the effect of the protein synthesis inhibitor cycloheximide (CHX) on BA-induced expression of RNA was analyzed. In these experiments, gamma3'PE cells were incubated with 150 μg/ml CHX for 2 hr prior to addition of BA (5 mM). Control cells were incubated with either CHX or BA alone or were mock incubated. Cells were harvested 5 hr later for preparation of total RNA. RNA samples were electrophoresed, transferred to nitrocellulose and hybridized to a ^32 P-labeled luciferase cDNA probe as described in Example 4. The radioactive signals on the filter were quantitated using a BioRad GS-250 Molecular Imager and mRNA levels were normalized to values obtained for mock treated samples. The results are presented graphically in FIG. 12, Panel A. BA treatment alone increased gamma globin-regulated luciferase mRNA by approximately 6 fold.
The results, normalized to mock treated samples, are depicted graphically in FIG. 12, Panel B. In contrast to luciferase mRNA which was induced by BA treatment, the level of GATA-1 RNA decreases about 3 fold in response to BA treatment.

For test [3], the system named is erythroid differentiation of cultured cells. As to conditions: Leder and Leder 1975; cited from earlier work.
The subject of test [4] is gamma globin gene expression. As to conditions: cited from earlier work.

The structures appear in SMILES notation.

For `CCCC(=O)O` [BA, butyric acid], the “induction of gamma-globin reporter gene expression over time course (FIG. 3)” value in test [1] (5 mM, 24-122 hr, normalized to viable cells) was “initially a strong inducer of gamma-globin gene expression”. In addition, in test [1] (5 mM, normalized to viable cells), the “level of induction by the conclusion of the time course (FIG. 3)” value is given as “dropped below the level of uninduced cells by the conclusion of the time course”. In addition, the fold induction at 5000 µM in test [1] (Homo sapiens, K562, 72 h, read-out: fold induction of reporter gene activity (FIG. 6)) was approximately 2; in test [2], approximately 6. The “decrease in GATA-1 RNA level” value in the test on GATA-1 mRNA is “about 3 fold”. In addition, the “induction of erythroid differentiation” value in test [3] was “potent inducer of erythroid differentiation of cultured cells”. Besides, the “effect on gamma globin gene expression” value in test [4] (in vitro and in vivo) is “increase gamma globin gene expression in vitro and in vivo”. Further, the “effect on fetal to adult hemoglobin switch” value in test [4] (in vivo) is listed as “delay the fetal to adult hemoglobin switch in vivo”.
